Results from ChEMBL document CHEMBL2434925, “Synthesis and antiviral activity of a novel class of (5-oxazolyl)phenyl amines” (Eur J Med Chem, 2013).

Columns and labels:
[1] = Selectivity index, ratio of CC50 for human Huh7.5 cells to IC50 for HCV expressing pFL-J6/JFH/JC1; format: functional, Huh-7
[2] = Selectivity index, ratio of CC50 for african green monkey Vero cells to IC50 for Coxsackie B3 virus Nancy; format: functional
[3] = Cytotoxicity against african green monkey Vero cells after 96 hrs by MTT assay; format: cell-based; details: chlorocebus sabaeus
[4] = Selectivity index, ratio of CC50 for african green monkey Vero cells to IC50 for Coxsackie B3 virus Schmitt; format: functional
Coxsackievirus B6 = test: Antiviral activity against Coxsackie B6 virus Schmitt in african green monkey Vero cells assessed as inhibition virus-induced cytopathic effect after 48 hrs; format: functional, organism-based; details: Enterovirus B
Hepatitis C virus = test: Antiviral activity against HCV expressing pFL-J6/JFH/JC1 infected in human Huh7.5 cells assessed as inhibition of viral RNA synthesis after 96 hrs by one-step RT-PCR analysis; format: functional, organism-based, Hepacivirus hominis; details: Huh-7, 96 h
Coxsackievirus B3 = test: Antiviral activity against Coxsackie B3 virus Nancy in african green monkey Vero cells assessed as inhibition virus-induced cytopathic effect after 48 hrs; format: functional, organism-based; details: Enterovirus B
[5] = Cytotoxicity against human Huh7.5 cells after 96 hrs by MTT assay; format: cell-based, Huh-7

Row | SMILES | Ratio CC50/IC50 [1] | Ratio CC50/IC50 [2] | CC50 at 96 h [3] | Ratio CC50/IC50 [4] | IC50 (Coxsackievirus B6) | IC50 (Hepatitis C virus) | IC50 (Coxsackievirus B3) | CC50 at 96 h [5]
1 | COc1cc(NCc2ccco2)ccc1-c1cnco1 | 75.4 | 7.5 | 57 µM | 8.2 | 6.96 µM | 1.06 µM | 7.6 µM | 80 µM
2 | COc1cc(NCc2csc3ccccc23)ccc1-c1cnco1 | <19.1 | 6.8 | 12.7 µM | 5.2 | 2.43 µM | > 1.24 µM | 1.87 µM | 23.6 µM
3 | COc1cc(NCc2c[nH]c3ccccc23)ccc1-c1cnco1 | 34.6 | 4.9 | 48.3 µM | 2.1 | 23.2 µM | 1.62 µM | 9.95 µM | 56.1 µM
4 | COc1cc(NCc2cc(OC)c(OC)c(OC)c2)ccc1-c1cnco1 | <9.9 | 3.6 | 41.6 µM | 3.6 | 11.6 µM | > 3.71 µM | 11.6 µM | 36.6 µM
5 | COc1ccccc1/C=C/CNc1ccc(-c2cnco2)c(OC)c1 | 12.7 | 4 | 12.7 µM | 1.7 | 7.34 µM | 2.3 µM | 3.15 µM | 29.2 µM
6 | COc1ccc(-c2cnco2)cc1NCc1cccs1 | >32.5 | 2.1 | 53.8 µM | 4.8 | 11.3 µM | 3.08 µM | 25.9 µM | > 100 µM
7 | COc1cc(NCc2ccsc2)ccc1-c1cnco1 | 50.5 | 49.4 | 181 µM | 38.9 | 4.65 µM | 1.25 µM | 3.66 µM | 63.1 µM
8 | COc1cc(NCc2ccc(Br)s2)ccc1-c1cnco1 | <10.5 | 9.2 | 47.3 µM | 39.4 | 1.2 µM | > 3.75 µM | 5.14 µM | 39.4 µM
9 | COc1cc(NCc2cccnc2Cl)ccc1-c1cnco1 | 22.5 | 9.7 | 40.6 µM | 12.2 | 3.33 µM | 1.8 µM | 4.21 µM | 40.5 µM
10 | COc1cc(/N=C/c2cccs2)ccc1-c1cnco1 | >17.5 | 4 | 406 µM | 9 | 45.1 µM | 5.72 µM | 101 µM | > 100 µM
11 | COc1cc(NC/C=C/c2ccccc2)ccc1-c1cnco1 | >42 | 20.6 | 72.5 µM | 15.5 | 4.67 µM | 2.38 µM | 3.52 µM | > 100 µM
12 | COc1cc(NCc2ccc(OC)c(OC)c2OC)ccc1-c1cnco1 | 48.4 | 39.5 | 28.8 µM | 17 | 1.7 µM | 0.66 µM | 0.73 µM | 32 µM
13 | COc1ccc(CNc2ccc(-c3cnco3)c(OC)c2)cc1 | 29.5 | 27.5 | 23.9 µM | 7 | 3.42 µM | 1.4 µM | 0.87 µM | 41.3 µM
14 | COc1cc(NCc2cncs2)ccc1-c1cnco1 | 94.4 | 11.8 | 232 µM | 20.5 | 11.3 µM | 0.73 µM | 19.6 µM | 68.9 µM
15 | COc1c(C)c2c(c(O)c1C/C=C(\C)CCC(=O)O)C(=O)OC2 [MYCOPHENOLIC ACID] | >24 | 61.5 | 624 µM | 9 | 69.4 µM | 4.16 µM | 10.2 µM | > 100 µM
16 | COc1cc(NCc2ccc(-c3ccccc3)s2)ccc1-c1cnco1 | 28.3 | 3 | 6.82 µM | 9.1 | 0.75 µM | 0.92 µM | 2.26 µM | 26 µM
17 | COc1cc(NCc2scnc2C)ccc1-c1cnco1 | 8.5 | 13 | 73.7 µM | 7 | 10.6 µM | 6.88 µM | 5.67 µM | 58.5 µM
18 | COc1cc(/N=C/c2ccc([N+](=O)[O-])o2)ccc1-c1cnco1 | 16.5 | – | 13.7 µM | 2.8 | 4.88 µM | 1.24 µM | > 7.88 µM | 20.5 µM

Row | SMILES | Ratio CC50/IC50 [1] | Ratio CC50/IC50 [2] | CC50 at 96 h [3] | Ratio CC50/IC50 [4] | IC50 (Coxsackievirus B6) | IC50 (Hepatitis C virus) | IC50 (Coxsackievirus B3) | CC50 at 96 h [5]
19 | NC(=O)c1ncn([C@@H]2O[C@H](CO)[C@@H](O)[C@H]2O)n1 [RIBAVIRIN] | – | 5.2 | 8190 µM | – | 910 µM | – | 1580 µM | –
20 | COc1ccc(CNc2ccc(-c3cnco3)c(OC)c2)cn1 | 17.5 | 61.5 | 371 µM | 36.7 | 10.1 µM | 3.25 µM | 6.03 µM | 56.8 µM
21 | COc1cc(NCc2ccc(C)o2)ccc1-c1cnco1 | 62.8 | 9 | 45.1 µM | 6.7 | 6.78 µM | 1.01 µM | 5.01 µM | 63.4 µM
22 | COc1ccc2[nH]cc(CNc3ccc(-c4cnco4)c(OC)c3)c2c1 | >122 | – | 36.7 µM | – | > 7.07 µM | 0.82 µM | > 7.07 µM | > 100 µM
23 | CCc1ccc(CNc2ccc(-c3cnco3)c(OC)c2)s1 | 19.8 | 6.8 | 13.6 µM | 3 | 4.55 µM | 1.98 µM | 2 µM | 39.1 µM
24 | COc1cc(NCc2ccc(C(=O)O)s2)ccc1-c1cnco1 | >4.5 | 5.2 | 350 µM | 6.2 | 56 µM | 22.4 µM | 67.3 µM | > 100 µM
25 | COc1cc(NCc2cccs2)ccc1-c1cnco1 | 183.3 | 19.1 | 17.9 µM | 11.7 | 1.54 µM | 0.28 µM | 0.94 µM | 51.3 µM
26 | COc1cc(NCc2ccncc2)ccc1-c1cnco1 | 12.7 | 13 | 342 µM | 22.5 | 15.2 µM | 5.71 µM | 26.3 µM | 72.2 µM
27 | COc1cc(NCc2ccc(Cl)s2)ccc1-c1cnco1 | 130.8 | 39.3 | 53.8 µM | 64 | 0.84 µM | 0.33 µM | 1.37 µM | 43.2 µM
28 | COc1cc(NCc2cccc(C)n2)ccc1-c1cnco1 | 26.1 | 5.2 | 75.2 µM | 11.8 | 6.36 µM | 2.4 µM | 14.5 µM | 62.7 µM
29 | COc1cc(/N=C/C=C/c2ccccc2)ccc1-c1cnco1 | >14.3 | 7 | 105 µM | 5.6 | 18.9 µM | 6.99 µM | 15.1 µM | > 100 µM
30 | COc1ccc(O)c(CNc2ccc(-c3cnco3)c(OC)c2)c1 | >10.1 | 9.9 | 98.2 µM | 4.3 | 22.7 µM | 9.95 µM | 9.96 µM | > 100 µM
31 | COc1cc(NCc2ccc(C)s2)ccc1-c1cnco1 | 16.8 | 7 | 24.7 µM | 11.8 | 2.1 µM | 2.05 µM | 3.52 µM | 34.4 µM
32 | COc1cc(NCc2cc3ccccc3s2)ccc1-c1cnco1 | 57.9 | 5.3 | 7.36 µM | 6.9 | 1.07 µM | 0.5 µM | 1.39 µM | 29 µM
33 | COc1cc(/N=C/c2ccncc2)ccc1-c1cnco1 | >62.1 | 6.8 | 239 µM | 15.6 | 15.3 µM | 1.61 µM | 34.9 µM | > 100 µM
34 | COc1ccc(-c2cnco2)cc1NCc1ccc(C)s1 | 21.9 | 5.2 | 42.7 µM | 3.4 | 12.8 µM | 2.42 µM | 8.22 µM | 52.9 µM
35 | COc1cc(/N=C/c2ccc(F)cc2)ccc1-c1cnco1 | >84.8 | 7.5 | 324 µM | 5.6 | 58.2 µM | 1.18 µM | 43.3 µM | > 100 µM
